One data set deals with CXCR1 receptor (Homo sapiens (Human), UniProt P25024). The data set can be described thus: β-arrestin 2 recruitment test, U2OS hCXCR1 β-arrestin cells stimulated with CXCL8. The data set is classed as cell-based. To be noted: CXCL8 stimulation. How it is done:
(§1) The in vitro affinity of the compounds of the present invention for the CXCR1 and CXCR2 receptors was determined on a functional test of the β-arrestin recruitment type after receptor activation.
(§2) β-Arrestin Recruitment Assay:
(§3) “PathHunter HEK293-CXCR2” or “U2OS hCXCR1 β-arrestin” cells (DiscoveRx Corporation) were seeded overnight at 10 000 cells/well (384-well format) in 20 μl of Opti MEM I medium. A preincubation with the antagonist or the vehicle for 30 min at 37° C. and 5% CO2 was followed by 60 minutes of stimulation with CXCL8 at 37° C. and 5% CO2. The cells were then placed at ambient temperature for 30 minutes. The PathHunter detection reagent (DiscoveRx Corporation) was added. […] The data were analyzed by means of a non-linear curve procedure using the XLFit4 exploitation software (IDBS) and the IC50 values were determined.
On the technique in general: Arrestin recruitment assays detect the binding of arrestin to an activated receptor.

A further data set addresses CXCR2 receptor (Homo sapiens (Human), UniProt P25025). The data set can be described thus: β-arrestin 2 recruitment test, PathHunter HEK293-CXCR2 cells stimulated with CXCL8. Type of data set: cell-based. The conditions noted are these: CXCL8 stimulation. How it is done: as §1, §2, §3
Another data set concerns the target CXCR3 (Homo sapiens (Human), UniProt P49682). The data set can be described thus: Receptor profiling: calcium flux (FLIPR TETRA) on Chem-1 cells expressing chemokine receptor. Type of data set: cell-based. The conditions noted are these: antagonist activity, reference agonist at AC80. The procedure:
(§4) Measurement of Calcium Flux on Cells:
(§5) The experiments were carried out on the FLIPR TETRA® platform from Molecular Devices. After the basal level had been read, the compounds were added to the cells expressing the chemokine receptor of interest and the agonist activity was read at 10 seconds.
(§6) Each cell line expressing a chemokine receptor was established on the basis of the Chem-1 cell stably expressing the recombinant form of the chemokine receptor and also an associated G protein, with the aim of coupling the receptor to the calcium signalling pathway. 21 receptors belonging to the chemokine receptor family (CCRs and CXCRs) were analyzed. All the CXCR2 antagonists were tested in a dose-dependent manner and the concentration corresponding to 50% inhibition of the response was determined (IC50).
(In general: Calcium assays in cells follow changes in intracellular calcium, usually with a dye or a luminescent sensor.)

A further data set concerns the target CCR4 (Homo sapiens (Human), UniProt P51679). The data set is described as above. Type of data set: cell-based. Set-up: key to IC50 CCR4: IA: Inactive. The conditions noted are these: antagonist activity, reference agonist at AC80. How it is done:
as §4, §5, §6

The term IC50 denotes the concentration that gives 50% inhibition. What is called melting point is the temperature of the solid-liquid transition.

CXCR2 receptor, sequence (P25025 whole entry): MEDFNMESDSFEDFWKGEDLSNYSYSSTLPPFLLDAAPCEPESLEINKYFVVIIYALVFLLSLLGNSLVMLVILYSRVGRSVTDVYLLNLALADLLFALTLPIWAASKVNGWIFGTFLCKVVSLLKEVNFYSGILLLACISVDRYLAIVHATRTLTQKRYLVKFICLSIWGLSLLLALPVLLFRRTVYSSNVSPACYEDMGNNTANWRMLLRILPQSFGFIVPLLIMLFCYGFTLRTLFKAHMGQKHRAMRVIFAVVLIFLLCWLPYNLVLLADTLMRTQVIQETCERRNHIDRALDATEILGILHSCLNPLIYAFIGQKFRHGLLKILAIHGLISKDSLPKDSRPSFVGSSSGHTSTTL
CXCR1 receptor, sequence (P25024 whole entry): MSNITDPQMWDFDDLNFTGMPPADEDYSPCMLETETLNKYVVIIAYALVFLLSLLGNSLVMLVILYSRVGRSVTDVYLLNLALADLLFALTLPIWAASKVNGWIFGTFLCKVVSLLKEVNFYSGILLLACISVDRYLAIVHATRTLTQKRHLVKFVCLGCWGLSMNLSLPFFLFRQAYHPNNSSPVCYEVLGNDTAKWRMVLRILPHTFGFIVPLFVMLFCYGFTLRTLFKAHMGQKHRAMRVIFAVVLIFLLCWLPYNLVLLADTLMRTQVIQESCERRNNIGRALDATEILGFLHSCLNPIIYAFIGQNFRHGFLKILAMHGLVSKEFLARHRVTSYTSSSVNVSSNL
CXCR3, sequence (P49682 whole entry): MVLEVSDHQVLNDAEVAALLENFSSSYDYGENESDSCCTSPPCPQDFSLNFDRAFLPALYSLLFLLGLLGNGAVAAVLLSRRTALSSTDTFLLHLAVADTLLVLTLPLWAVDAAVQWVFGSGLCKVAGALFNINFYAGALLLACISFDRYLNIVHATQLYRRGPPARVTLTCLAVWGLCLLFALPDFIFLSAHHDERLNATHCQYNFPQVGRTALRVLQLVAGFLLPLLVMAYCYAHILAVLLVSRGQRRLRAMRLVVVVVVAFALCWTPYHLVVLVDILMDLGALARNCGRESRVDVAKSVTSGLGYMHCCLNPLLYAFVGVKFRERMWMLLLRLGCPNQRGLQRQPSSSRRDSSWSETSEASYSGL
CCR4, sequence (P51679 whole entry): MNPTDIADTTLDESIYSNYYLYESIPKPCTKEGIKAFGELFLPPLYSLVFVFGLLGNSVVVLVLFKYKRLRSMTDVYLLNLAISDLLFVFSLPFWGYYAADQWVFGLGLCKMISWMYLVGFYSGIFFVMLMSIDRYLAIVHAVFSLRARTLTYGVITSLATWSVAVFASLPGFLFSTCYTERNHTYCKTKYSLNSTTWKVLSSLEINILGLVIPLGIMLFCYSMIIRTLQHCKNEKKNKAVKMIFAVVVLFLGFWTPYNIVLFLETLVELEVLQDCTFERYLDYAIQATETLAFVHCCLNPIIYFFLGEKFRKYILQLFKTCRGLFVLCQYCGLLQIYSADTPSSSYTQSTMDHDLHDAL

`Cc1ccc(C(Nc2c(Nc3cccc(C(=O)N4CCC(O)C4)c3)c(=O)c2=O)C2(C)COC2)o1` (stereo not shown) [Example 31, 3-[3-(3-hydroxypyrrolidine-1-carbonyl)phenylamino]-4-{[(5-methylfuran-2-yl)-(3-methyloxetan-3-yl)methyl]amino}cyclobut-3-ene-1,2-dione]: the melting point fell in the range of 242 to 245 °C. Further, the IC50 on CXCR1 receptor was determined as 3530 nM. The compound further registered an IC50 on CXCR2 receptor of 716 nM.
The compound `Cc1cc(C(Nc2c(Nc3cccc(C(=O)N(C)C)c3O)c(=O)c2=O)C2(C)COC2)oc1C` (stereo not shown) [Example 27, 3-(2-{[(4,5-dimethylfuran-2-yl)-(3-methyloxetan-3-yl)methyl]amino}-3,4-dioxocyclobut-1-enylamino)-2-hydroxy-N,N-dimethylbenzamide] had a melting point of 207 to 209 °C. This compound also yielded an IC50 on CXCR1 receptor of 1540 nM. Also, the IC50 against CXCR2 receptor turned out to be 244 nM.
`Cc1ccc([C@H](Nc2c(Nc3cccc(C(=O)N(C)C)c3O)c(=O)c2=O)C2(C)COC2)o1` [Example 50, 2-hydroxy-N,N-dimethyl-3-(2-{[((R)-5-methylfuran-2-yl)-(3-methyloxetan-3-yl)methyl]amino}-3,4-dioxocyclobut-1-enylamino)benzamide]: the IC50 at CXCR3 stood at 700 nM.
In turn, `Cc1ccc(C(Nc2c(Nc3cccc(C(=O)N(C)C)c3O)c(=O)c2=O)C2(C)CN(C(=O)OC(C)(C)C)C2)o1` (stereo not shown) [Example 26, tert-butyl 3-[[2-(3-dimethylcarbamoyl-2-hydroxyphenylamino)-3,4-dioxo-cyclobut-1-enylamino]-(5-methylfuran-2-yl)methyl]-3-methylazetidine-1-carboxylate] gave a melting point of 162 to 165 °C.
Same read-out and setting: the same measure for `COC(=O)C1CCCCN1C(=O)c1cccc(Nc2c(NC(c3ccc(C)o3)C3(C)COC3)c(=O)c2=O)c1` (stereo not shown): 130 to 132 °C; for `Cc1ccc(C(Nc2c(Nc3cccc(C(=O)O)c3O)c(=O)c2=O)C2(C)COC2)o1` (stereo not shown) [Example 4, 2-hydroxy-3-(2-{[(5-methylfuran-2-yl)-(3-methyloxetan-3-yl)methyl]amino}-3,4-dioxocyclobut-1-enylamino)benzoic acid]: 180 to 185 °C; for `Cc1ccc(C(Nc2c(Nc3cccc(C(=O)N(C)C)c3O)c(=O)c2=O)C2(C)COC2)o1` (stereo not shown) [Example 1, 2-hydroxy-N,N-dimethyl-3-(2-{[(5-methylfuran-2-yl)-(3-methyloxetan-3-yl)methyl]amino}-3,4-dioxocyclobut-1-enylamino)benzamide]: 196 to 198 °C.
On the same count and under the same terms, the same measure for `Cc1ccc(C(Nc2c(Nc3cccc4nn[nH]c34)c(=O)c2=O)C2(C)COC2)o1` (stereo not shown) [Example 23, 3-(3H-benzotriazol-4-ylamino)-4-{[(5-methylfuran-2-yl)-(3-methyloxetan-3-yl)methyl]amino}cyclobut-3-ene-1,2-dione]: 178 to 180 °C.
`Cc1ccc(C(Nc2c(Nc3cccc(C(=O)N4CCC[C@@H]4C(=O)OC(C)(C)C)c3O)c(=O)c2=O)C2(C)COC2)o1` (stereo partly drawn) [Example 7, (R)-1-[2-hydroxy-3-(2-{[(5-methylfuran-2-yl)-(3-methyloxetan-3-yl)methyl]amino}-3,4-dioxocyclobut-1-enylamino)benzoyl]pyrrolidine-2-carboxylic acid tert-butyl ester] displayed a melting point of 162 to 164 °C. On CXCR1 receptor, the IC50 was 2410 nM. For the same compound, the concentration for half-maximal inhibition (IC50) against CXCR2 receptor was determined as 100 nM.
The compound `COC(=O)[C@@H]1CCCN1C(=O)c1cccc(Nc2c(NC(c3ccc(C)o3)C3(C)COC3)c(=O)c2=O)c1Cl` (stereo partly drawn) [Example 46, methyl (S)-1-[2-chloro-3-(2-{[(5-methylfuran-2-yl)-(3-methyloxetan-3-yl)methyl]amino}-3,4-dioxocyclobut-1-enylamino)benzoyl]pyrrolidine-2-carboxylate] came in with a melting point of 148 to 158 °C.
Regarding `Cc1ccc(C(Nc2c(Nc3cccnc3O)c(=O)c2=O)C2(C)COC2)o1` (stereo not shown) [Example 20, 3-(2-hydroxypyridin-3-ylamino)-4-{[(5-methylfuran-2-yl)-(3-methyloxetan-3-yl)methyl]amino}-cyclobut-3-ene-1,2-dione], the IC50 is 6620 nM at CXCR1 receptor and 335 nM on CXCR2 receptor.
On to `Cc1ccc(C(Nc2c(Nc3cccc(C(C)O)c3O)c(=O)c2=O)C2(C)COC2)o1` (stereo not shown) [Example 11, 3-[2-hydroxy-3-(1-hydroxyethyl)phenylamino]-4-{[(5-methylfuran-2-yl)-(3-methyloxetan-3-yl)methyl]amino}cyclobut-3-ene-1,2-dione], for which the melting point is 129 to 131 °C. The IC50 on CXCR1 receptor is 6510 nM. Also, half-maximal inhibition on CXCR2 receptor (IC50) was put at 549 nM.
With `Cc1ccc([C@H](Nc2c(Nc3ccc(Cl)c(C(=O)N(C)C)c3O)c(=O)c2=O)C2(C)COC2)o1` [Example 52, 6-chloro-2-hydroxy-N,N-dimethyl-3-(2-{[(R)-(5-methylfuran-2-yl)-(3-methyloxetan-3-yl)methyl]amino}-3,4-dioxocyclobut-1-enylamino)benzamide], the IC50 against CXCR1 receptor came to 897 nM; against CXCR2 receptor, 373 nM.
Regarding `Cc1ccc(C(Nc2c(Nc3cccc(C(=O)N(C)C)c3O)c(=O)c2=O)C2(CF)COC2)o1` (stereo not shown) [Example 2, 3-(2-{[(3-fluoromethyloxetan-3-yl)-(5-methyl-furan-2-yl)methyl}amino]-3,4-dioxocyclobut-1-enylamino)-2-hydroxy-N,N-dimethylbenzamide], the melting point lay within 186 to 188 °C. Moreover, half-maximal inhibition on CXCR1 receptor (IC50) required 1600 nM. Besides, at CXCR2 receptor, the IC50 was determined as 272 nM.
In the case of `COC(=O)[C@H]1CCCN1C(=O)c1cccc(Nc2c(N[C@@H](c3ccc(C)o3)C3(C)COC3)c(=O)c2=O)c1O` [Example 8, methyl (R)-1-[2-hydroxy-3-(2-{[(R)-(5-methylfuran-2-yl)-(3-methyloxetan-3-yl)methyl]amino}-3,4-dioxocyclobut-1-enylamino)benzoyl]pyrrolidine-2-carboxylate], the values for the IC50 on CXCR1 receptor, on CXCR2 receptor and on CXCR3 were 604 nM, 37 nM and 240 nM, respectively. The “IC50 CCR4” value at CCR4 was “IA”.
Regarding `CCC1(C(Nc2c(Nc3cccc(C(=O)N(C)C)c3O)c(=O)c2=O)c2ccc(C)o2)COC1` (stereo not shown) [Example 3, 3-(2-{[(3-ethyloxetan-3-yl)-(5-methylfuran-2-yl)methyl]amino}-3,4-dioxocyclobut-1-enylamino)-2-hydroxy-N,N-dimethylbenzamide], the IC50 against CXCR1 receptor worked out at 1150 nM; against CXCR2 receptor, 106 nM.
Taken in the same sequence, the figures for `Cc1ccc(C(Nc2c(Nc3cccn(C)c3=O)c(=O)c2=O)C2(C)COC2)o1` (stereo not shown) [Example 19, 3-{[(5-methylfuran-2-yl)-(3-methyloxetan-3-yl)methyl]amino}-4-(1-methyl-2-oxo-1,2-dihydropyridin-3-ylamino)cyclobut-3-ene-1,2-dione] were 4960 nM and 394 nM.

Values taken from patent US9090596B2, “Disubstituted 3,4-diamino-3-cyclobutene-1,2-dione compounds for use in the treatment of chemokine-mediated pathologies” (GALDERMA RESEARCH & DEVELOPMENT, priority 2011, dated 2015).
